Experiment: Measurement of circular dichroism (mean residue ellipticity at 222 nm)
Format: physicochemical
Settings: 32° C.
From the text: In general, the structure of a polypeptide in an aqueous buffered solution is in constant flux between portions thereof being random coil and alpha-helix configurations. For the polypeptides used in the following examples, the predominant structure is a random coil since the alpha-helix configuration is unstable in the absence of bound surfactant. According to the present invention adding surfactant to an aqueous solution of a polypeptide stabilizes the alpha-helix configuration. Circular dichroism is a measurement of the amount of the alpha-helix configured polypeptide present in the solution. Thus, circular dichroism provides an indirect measurement of the degree of binding of the surfactant to the polypeptide. (See, for example, Epand R. M., Epand R. F., Orlowski R. C., Schuleter R. J., Boni L. T. and Hui S. W., Biochemistry 22, 5074-5084 (1983); Hui, S. W., Epand R. M., Dell K. R., Epand R. F. and Orlowski R. C., Biochimica Biophysica Acta 772, 264-272 (1984); Epand R. M., Epand R. F., and Orlowski R. C., International Journal Peptide Protein Research 25 105-111; Epand R. M., Epand R. F., Orlowski R. C., Seyler J. K. and Colescott R. L., Biochemistry 25, 1964-1968; Epand R. M., Seyler J. K. and Orlowski R. C., European Journal Biochemistry 159, 125-127 (1986); Wiersema P. H., Loeb A. L. and Overbeek, J., Colloid Interface Science 22, 78-99 (1966)).
The surfactant/peptide circular dichroism (CD) spectra were obtained in a 2 mm path-length cell (110-Q-2 Model, AVIV, Lakewood, N.J.) at 32° C. The cell was initially loaded with 0.60 mL of a solution containing about 0.25 mg/mL of the peptide in 10 mM sodium chloroacetate (pH 3.5) or 10 mM sodium borate (pH 9.0). The buffers were selected to minimize the effect of the temperature on the pH of the solution and to minimize light absorption, thereby optimizing the signal-to-noise ratio (SNR). The peptide concentration was determined by spectrophotometry, with log-log correction for light scattering. The surfactant concentration was increased step-wise by titration of concentrated surfactant stock directly into the CD cell, followed by eight inversions of the cell, with the air bubble providing the mixing turbulence. After mixing, the cell was placed into the AVIV 62 CD spectrometer (AVIV, Lakewood, N.J.). In order to approximate temperature and chemical equilibrium, the sample remained in the spectrometer 5 minutes before a reading was taken. The CD spectrum was taken using a band pass of 1 nm, a data interval of 1 nm, and a data averaging time of 10 seconds. The mean residue ellipticity is the ellipticity divided by the path length in cm times the amino acid residue concentration in decimoles/cm^3. See Methods in Enzymology, Vol 130, pp 208-269, Yang et al, "Calculation of Protein Conformation from Circular Dichroism" (1986).
The measurement procedures described above were conducted on an aqueous solution of the protein insulinotropin, with TWEEN® 20 (MW=1126 g/mol) as the surfactant, with the following modifications. The insulinotropin donor solution concentration was 0.12 mg/mL. One test was run in 10 mM sodium borate at pH 9.0 and another test in 10 mM sodium chloroacetate at pH 3.5.
Fractional changes (%δ) are defined as the difference between the reading at a given surfactant concentration (Ec) minus the reading at zero surfactant (E0), the quantity divided by the difference between the reading at saturated surfactant concentration (Es) minus the reading at zero surfactant (E0), i. e. %δ=(Ec -E0)/(Es-E0).
The measurement procedures described earlier were conducted on an aqueous solution of insulinotropin as the agent, and TWEEN® 40 (molecular weight 1282 g/mol) as the surfactant with the following changes. The insulinotropin concentration was initially 0.29 mg/mL, and 0.21 mg/mL after the final TWEEN® 40 addition and the temperature was held at 32° C. Two tests were conducted at two different concentrations of TWEEN® 40. […]

## Salmon Calcitonin [reference compound]
pH 3.5, 12 mM sodium chloroacetate, dodecyl sulfobetaine 0, calcitonin 0.087 mM
  Ellipticity (mean residue at 222 nm): -4052 deg-cm^2 /dmol
pH 3.5, 12 mM sodium chloroacetate, dodecyl sulfobetaine 2.44 mM, calcitonin 0.085 mM
  Ellipticity (mean residue at 222 nm): -4270 deg-cm^2 /dmol
pH 3.5, 12 mM sodium chloroacetate, dodecyl sulfobetaine 4.76 mM, calcitonin 0.083 mM
  Ellipticity (mean residue at 222 nm): -7984 deg-cm^2 /dmol
pH 3.5, 12 mM sodium chloroacetate, dodecyl sulfobetaine 5.52 mM, calcitonin 0.082 mM
  Ellipticity (mean residue at 222 nm): -8744 deg-cm^2 /dmol
pH 3.5, 12 mM sodium chloroacetate, dodecyl sulfobetaine 6.25 mM, calcitonin 0.081 mM
  Ellipticity (mean residue at 222 nm): -9436 deg-cm^2 /dmol
pH 3.5, 12 mM sodium chloroacetate, dodecyl sulfobetaine 7.69 mM, calcitonin 0.080 mM
  Ellipticity (mean residue at 222 nm): -10475 deg-cm^2 /dmol
pH 3.5, 12 mM sodium chloroacetate, dodecyl sulfobetaine 9.09 mM, calcitonin 0.079 mM
  Ellipticity (mean residue at 222 nm): -11072 deg-cm^2 /dmol
pH 3.5, 12 mM sodium chloroacetate, dodecyl sulfobetaine 10.4 mM, calcitonin 0.078 mM
  Ellipticity (mean residue at 222 nm): -11460 deg-cm^2 /dmol
pH 3.5, 12 mM sodium chloroacetate, dodecyl sulfobetaine 13.0 mM, calcitonin 0.076 mM
  Ellipticity (mean residue at 222 nm): -11924 deg-cm^2 /dmol
pH 3.5, 12 mM sodium chloroacetate, dodecyl sulfobetaine 15.5 mM, calcitonin 0.073 mM
  Ellipticity (mean residue at 222 nm): -12070 deg-cm^2 /dmol
pH 3.5, 12 mM sodium chloroacetate, dodecyl sulfobetaine 21.1 mM, calcitonin 0.069 mM
  Ellipticity (mean residue at 222 nm): -12285 deg-cm^2 /dmol
pH 3.5, 12 mM sodium chloroacetate, dodecyl sulfobetaine 27.7 mM, calcitonin 0.063 mM
  Ellipticity (mean residue at 222 nm): -12133 deg-cm^2 /dmol
pH 5.0, 4 mM piperazine-HCl, dodecyl sulfobetaine 0, calcitonin 0.076 mM
  Ellipticity (mean residue at 222 nm): -3919 deg-cm^2 /dmol
pH 5.0, 4 mM piperazine-HCl, dodecyl sulfobetaine 0.83 mM, calcitonin 0.076 mM
  Ellipticity (mean residue at 222 nm): -3950 deg-cm^2 /dmol
pH 5.0, 4 mM piperazine-HCl, dodecyl sulfobetaine 1.64 mM, calcitonin 0.075 mM
  Ellipticity (mean residue at 222 nm): -4011 deg-cm^2 /dmol
pH 5.0, 4 mM piperazine-HCl, dodecyl sulfobetaine 3.23 mM, calcitonin 0.074 mM
  Ellipticity (mean residue at 222 nm): -5209 deg-cm^2 /dmol
pH 5.0, 4 mM piperazine-HCl, dodecyl sulfobetaine 4.76 mM, calcitonin 0.073 mM
  Ellipticity (mean residue at 222 nm): -7108 deg-cm^2 /dmol
pH 5.0, 4 mM piperazine-HCl, dodecyl sulfobetaine 6.25 mM, calcitonin 0.072 mM
  Ellipticity (mean residue at 222 nm): -8348 deg-cm^2 /dmol
pH 5.0, 4 mM piperazine-HCl, dodecyl sulfobetaine 7.69 mM, calcitonin 0.071 mM
  Ellipticity (mean residue at 222 nm): -9127 deg-cm^2 /dmol
pH 5.0, 4 mM piperazine-HCl, dodecyl sulfobetaine 9.77 mM, calcitonin 0.069 mM
  Ellipticity (mean residue at 222 nm): -9915 deg-cm^2 /dmol
pH 5.0, 4 mM piperazine-HCl, dodecyl sulfobetaine 12.4 mM, calcitonin 0.067 mM
  Ellipticity (mean residue at 222 nm): -10469 deg-cm^2 /dmol
pH 5.0, 4 mM piperazine-HCl, dodecyl sulfobetaine 18.4 mM, calcitonin 0.062 mM
  Ellipticity (mean residue at 222 nm): -10999 deg-cm^2 /dmol
pH 5.0, 4 mM piperazine-HCl, dodecyl sulfobetaine 26.4 mM, calcitonin 0.056 mM
  Ellipticity (mean residue at 222 nm): -11188 deg-cm^2 /dmol
pH 5.0, 4 mM piperazine-HCl, dodecyl sulfobetaine 35.8 mM, calcitonin 0.049 mM
  Ellipticity (mean residue at 222 nm): -11051 deg-cm^2 /dmol
pH 6.5, 15 mM sodium cacodylate, dodecyl sulfobetaine 0, calcitonin 0.071 mmol/l
  Ellipticity (mean residue at 222 nm): -4569 deg-cm^2 /dmol
pH 6.5, 15 mM sodium cacodylate, dodecyl sulfobetaine 3.28 mmol/l, calcitonin 0.070 mmol/l
  Ellipticity (mean residue at 222 nm): -6725 deg-cm^2 /dmol
pH 6.5, 15 mM sodium cacodylate, dodecyl sulfobetaine 6.45 mmol/l, calcitonin 0.068 mmol/l
  Ellipticity (mean residue at 222 nm): -10182 deg-cm^2 /dmol
pH 6.5, 15 mM sodium cacodylate, dodecyl sulfobetaine 9.52 mmol/l, calcitonin 0.067 mmol/l
  Ellipticity (mean residue at 222 nm): -11095 deg-cm^2 /dmol
pH 6.5, 15 mM sodium cacodylate, dodecyl sulfobetaine 12.5 mmol/l, calcitonin 0.066 mmol/l
  Ellipticity (mean residue at 222 nm): -11386 deg-cm^2 /dmol
pH 6.5, 15 mM sodium cacodylate, dodecyl sulfobetaine 18.2 mmol/l, calcitonin 0.064 mmol/l
  Ellipticity (mean residue at 222 nm): -11744 deg-cm^2 /dmol
pH 6.5, 15 mM sodium cacodylate, dodecyl sulfobetaine 28.6 mmol/l, calcitonin 0.061 mmol/l
  Ellipticity (mean residue at 222 nm): -11862 deg-cm^2 /dmol
pH 6.5, 15 mM sodium cacodylate, dodecyl sulfobetaine 42.1 mmol/l, calcitonin 0.056 mmol/l
  Ellipticity (mean residue at 222 nm): -11844 deg-cm^2 /dmol

— patent US6328728A, “Composition and method for enhancing electrotransport agent delivery” (Alza Corporation, priority 1997, dated 2001)
